Data set [1] has as its target T1, GFP-tagged full-length STEAP4 (Homo sapiens, UniProt Q687X5).
T1 construct: full-length, C-terminal GFP-Strep3 tag kept; detergent-purified (digitonin), trimer
T1 sequence (Q687X5 1-459): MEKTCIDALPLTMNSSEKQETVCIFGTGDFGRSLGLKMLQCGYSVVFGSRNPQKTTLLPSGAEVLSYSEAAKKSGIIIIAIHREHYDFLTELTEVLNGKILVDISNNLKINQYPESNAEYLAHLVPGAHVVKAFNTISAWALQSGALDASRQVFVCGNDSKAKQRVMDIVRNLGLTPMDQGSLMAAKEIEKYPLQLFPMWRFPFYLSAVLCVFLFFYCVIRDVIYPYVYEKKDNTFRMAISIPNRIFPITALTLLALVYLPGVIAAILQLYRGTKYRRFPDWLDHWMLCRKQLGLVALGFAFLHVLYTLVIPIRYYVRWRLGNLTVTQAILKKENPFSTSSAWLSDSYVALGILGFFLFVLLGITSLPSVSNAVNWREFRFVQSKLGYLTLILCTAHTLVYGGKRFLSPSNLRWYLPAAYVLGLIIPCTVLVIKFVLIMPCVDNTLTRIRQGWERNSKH
Nature of the data set: ferrozine ferric-reductase assay, FAD varied. It is filed as biochemical. The note with it: 200 µM Fe3+-NTA, 75 µM NADPH, 37 °C, SEC buffer pH 5.5, digitonin.

For data set [2], the target named is T2, STEAP4EM (Homo sapiens, UniProt Q687X5).
T2 construct: gene STEAP4; residues K18-Q456 (deltaN17 deltaC3), C-terminal GFP-Strep3 tag removed by TEV; codon-optimised, HEK293 GNTI- cells; digitonin-solubilised homotrimer; cytosolic oxidoreductase domain plus transmembrane domain
T2 sequence (Q687X5 18-456): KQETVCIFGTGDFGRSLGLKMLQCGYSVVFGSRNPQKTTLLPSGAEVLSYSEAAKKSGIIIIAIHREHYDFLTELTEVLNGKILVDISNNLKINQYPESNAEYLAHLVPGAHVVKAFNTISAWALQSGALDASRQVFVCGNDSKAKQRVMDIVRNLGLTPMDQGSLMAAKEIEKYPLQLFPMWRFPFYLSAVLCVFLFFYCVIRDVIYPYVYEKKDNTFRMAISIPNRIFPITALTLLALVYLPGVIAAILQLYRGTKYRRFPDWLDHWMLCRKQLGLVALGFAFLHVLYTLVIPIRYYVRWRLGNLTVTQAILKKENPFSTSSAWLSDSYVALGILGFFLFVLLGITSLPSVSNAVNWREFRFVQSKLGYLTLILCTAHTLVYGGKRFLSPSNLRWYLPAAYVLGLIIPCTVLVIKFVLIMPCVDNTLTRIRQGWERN
In words: ferrozine ferric-reductase assay, FAD varied, binding curve fit. Format: biochemical. Conditions: 200 µM Fe3+-NTA, 75 µM NADPH, 37 °C, SEC buffer pH 5.5, digitonin; Kd from activity curve; also seen in cryo-EM structures.

Data set [3] concerns the target T2, STEAP4EM. In words: ferric-reductase assay with FMN instead of FAD. Format: biochemical. The note with it: FMN in place of FAD; construct (STEAP4EM or full length) not stated in main text.
Data set [4] concerns the target T1, GFP-tagged full-length STEAP4. Nature of the data set: ferrozine ferric-reductase assay, NADPH varied. Format: biochemical. The note with it: 200 µM Fe3+-NTA, 10 µM FAD, 37 °C, SEC buffer pH 5.5, digitonin.
Data set [5] has as its target T3, GFP-tagged full-length STEAP4 (Homo sapiens, UniProt Q687X5, S138Q).
T3 construct: full-length, C-terminal GFP-Strep3 tag kept; detergent-purified (digitonin), trimer
T3 sequence (Q687X5 1-459 S138Q): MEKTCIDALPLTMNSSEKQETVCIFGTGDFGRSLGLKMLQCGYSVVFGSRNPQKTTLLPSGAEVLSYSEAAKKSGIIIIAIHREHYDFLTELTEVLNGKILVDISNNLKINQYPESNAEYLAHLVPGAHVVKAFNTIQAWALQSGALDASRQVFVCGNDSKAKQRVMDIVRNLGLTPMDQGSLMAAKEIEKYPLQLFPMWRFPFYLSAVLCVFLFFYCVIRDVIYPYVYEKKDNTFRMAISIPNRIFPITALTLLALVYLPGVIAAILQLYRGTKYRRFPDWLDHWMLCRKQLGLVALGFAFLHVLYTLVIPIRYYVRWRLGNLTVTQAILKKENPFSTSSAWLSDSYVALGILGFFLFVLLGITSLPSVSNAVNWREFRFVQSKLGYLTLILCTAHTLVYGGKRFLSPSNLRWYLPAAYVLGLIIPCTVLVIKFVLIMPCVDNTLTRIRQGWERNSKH
In words: ferrozine ferric-reductase assay, NADPH varied. It is filed as biochemical. Conditions: 200 µM Fe3+-NTA, 10 µM FAD, 37 °C, SEC buffer pH 5.5, digitonin.

The target of data set [6] is STEAP4EM (human STEAP4 residues K18-Q456, ΔN17ΔC3), non-TEV cleaved, with C-terminal GFP-Strep3 tag (human). In words: SEC-MALS; non-TEV cleaved STEAP4EM on Superdex200 10/300 increase in 20 mM Tris pH 8.0, 150 mM NaCl, 0.08% digitonin, 0.75 ml/min; protein conjugate analysis to separate protein and micelle.
Data set [7] concerns the molecule itself. Nature of the data set: not stated; purified S138Q mutant; data in Supplementary Fig. 13.
Substrate in data set [8]: NC(=O)C1=CN([C@@H]2O[C@H](COP(=O)(O)OP(=O)(O)OC[C@H]3O[C@@H](n4cnc5c(N)ncnc54)[C@H](OP(=O)(O)O)[C@@H]3O)[C@@H](O)[C@H]2O)C=CC1
Nature of the data set: ferrozine ferric-reductase assay, NADPH varied. Conditions: 200 µM Fe3+-NTA, 10 µM FAD, 37 °C, SEC buffer pH 5.5, digitonin, also seen in cryo-EM structure. It is filed as biochemical, Homo sapiens.

As to `Cc1cc2nc3c(=O)[nH]c(=O)nc-3n(C[C@H](O)[C@H](O)[C@H](O)COP(=O)(O)OP(=O)(O)OC[C@H]3O[C@@H](n4cnc5c(N)ncnc54)[C@H](O)[C@@H]3O)c2cc1C` [FAD], the “ferrozine ferric-reductase assay, FAD varied” value in data set [1] is “full-length STEAP4 wildtype (WT) and S138Q mutant with varying FAD concentrations”. In addition, at STEAP4EM [2], the Kd was found to be 1200 nM.

Take `Cc1cc2nc3c(=O)[nH]c(=O)nc-3n(C[C@H](O)[C@H](O)[C@H](O)COP(=O)(O)O)c2cc1C` [FMN]: on STEAP4EM [3], the “ferric-reductase assay with FMN instead of FAD” value is reported as “FMN may act as a cofactor in STEAP4-catalyzed iron reduction”.

In the case of `NC(=O)C1=CN([C@@H]2O[C@H](COP(=O)(O)OP(=O)(O)OC[C@H]3O[C@@H](n4cnc5c(N)ncnc54)[C@H](OP(=O)(O)O)[C@@H]3O)[C@@H](O)[C@H]2O)C=CC1` [NADPH], the “ferrozine ferric-reductase assay, NADPH varied” value in data set [4] is “full-length STEAP4 WT and S138Q mutant with varying NADPH concentrations”; in data set [5], “displayed strongly impaired ferric-reductase activity”.

As for “STEAP4EM (human STEAP4 residues K18-Q456, ΔN17ΔC3), non-TEV cleaved, with C-terminal GFP-Strep3 tag (enzyme)”, the stoichiometry N in data set [6] turned out to be 3.

B1: full-length human STEAP4 S138Q mutant (enzyme, UniProt Q687X5 1-459, looked up)
chain: MEKTCIDALPLTMNSSEKQETVCIFGTGDFGRSLGLKMLQCGYSVVFGSRNPQKTTLLPSGAEVLSYSEAAKKSGIIIIAIHREHYDFLTELTEVLNGKILVDISNNLKINQYPESNAEYLAHLVPGAHVVKAFNTIQAWALQSGALDASRQVFVCGNDSKAKQRVMDIVRNLGLTPMDQGSLMAAKEIEKYPLQLFPMWRFPFYLSAVLCVFLFFYCVIRDVIYPYVYEKKDNTFRMAISIPNRIFPITALTLLALVYLPGVIAAILQLYRGTKYRRFPDWLDHWMLCRKQLGLVALGFAFLHVLYTLVIPIRYYVRWRLGNLTVTQAILKKENPFSTSSAWLSDSYVALGILGFFLFVLLGITSLPSVSNAVNWREFRFVQSKLGYLTLILCTAHTLVYGGKRFLSPSNLRWYLPAAYVLGLIIPCTVLVIKFVLIMPCVDNTLTRIRQGWERNSKH
notes: six-transmembrane epithelial antigen of the prostate 4 (STEAP4), human, full length, with S138Q; source: detergent-purified
With B1, the “stoichiometry N” value in data set [7] was determined as 3.

B2: STEAP4EM (Homo sapiens) (protein)
chain: KQETVCIFGTGDFGRSLGLKMLQCGYSVVFGSRNPQKTTLLPSGAEVLSYSEAAKKSGIIIIAIHREHYDFLTELTEVLNGKILVDISNNLKINQYPESNAEYLAHLVPGAHVVKAFNTISAWALQSGALDASRQVFVCGNDSKAKQRVMDIVRNLGLTPMDQGSLMAAKEIEKYPLQLFPMWRFPFYLSAVLCVFLFFYCVIRDVIYPYVYEKKDNTFRMAISIPNRIFPITALTLLALVYLPGVIAAILQLYRGTKYRRFPDWLDHWMLCRKQLGLVALGFAFLHVLYTLVIPIRYYVRWRLGNLTVTQAILKKENPFSTSSAWLSDSYVALGILGFFLFVLLGITSLPSVSNAVNWREFRFVQSKLGYLTLILCTAHTLVYGGKRFLSPSNLRWYLPAAYVLGLIIPCTVLVIKFVLIMPCVDNTLTRIRQGWERN
notes: residues K18-Q456 (deltaN17 deltaC3), C-terminal GFP-Strep3 tag removed by TEV; codon-optimised, HEK293 GNTI- cells; digitonin-solubilised homotrimer; cytosolic oxidoreductase domain plus transmembrane domain
With B2, the Km in data set [8] turned out to be 4.2 µM.

The values are drawn from publication PMC6194020, “Cryo-EM structures of human STEAP4 reveal mechanism of iron(III) reduction” (Nature Communications, 2018).
